The values below come from US8420820B2, “Pyrrolopyridinylpyrimidin-2-ylamine derivatives” (Merck Patent GmbH, priority 2008, dated 2013).

The test system of assay [1] is A2780 (ovary). The assay is described as follows: Tumour cell proliferation/vitality assay (Alamar Blue). The assay is classed as cell-based. Conditions: Homo sapiens, 96 h, A2780 cells, 4 days of cultivation with test substance. As to the method:
In the present experiment description, the inhibition of tumour cell proliferation/tumour cell vitality by active ingredients is described.
The cells are sown in a suitable cell density in microtitre plates (96-well format) and the test substances are added in the form of a concentration series. After four further days of cultivation in serum-containing medium, the tumour cell proliferation/tumour cell vitality can be determined by means of an Alamar Blue test system.
The cells are cultivated in medium. At intervals of several days, the cells are detached from the culture dishes with the aid of trypsin solution and sown in suitable dilution in fresh medium. The cells are cultivated at 37° Celsius and 10% CO2.
A defined number of cells (for example 2000 cells) per culture/well in a volume of 180 μl of culture medium are sown in microtitre plates (96 well cell-culture plates) using a multichannel pipette. The cells are subsequently cultivated in a CO2 incubator (37° C. and 10% CO2).
The test substances are dissolved, for example, in DMSO and subsequently employed in corresponding concentration (if desired in a dilution series) in the cell culture medium. The dilution steps can be adapted depending on the efficiency of the active ingredients and the desired spread of the concentrations. Cell culture medium is added to the test substances in corresponding concentrations. The addition of the test substances to the cells can take place on the same day as the sowing of the cells. To this end, in each case 20 μl of substance solution from the predilution plate are added to the cultures/wells. The cells are cultivated for a further 4 days at 37° Celsius and 10% CO2.
In each case, 20 μl of Alamar Blue reagent are added per well, and the microtitre plates are incubated, for example, for a further seven hours in a CO2 incubator (at 37° C. and 10% CO2). The plates are measured in a reader with a fluorescence filter at a wavelength of 540 nm. The plates can be shaken gently immediately before the measurement.
The absorbance value of the medium control (no cells and test substances used) is subtracted from all other absorbance values. The controls (cells without test substance) are set equal to 100 percent, and all other absorbance values are set in relation thereto (for example in % of control):
IC50 values (50% inhibition) are determined with the aid of statistics programs, such as, for example, RS1.
Background: The colour change of resazurin is a common sign of viable cells or microbes.

The subject of assay [2] is PDK1 kinase activity in PC3 cells (phospho-T308-PKB). Nature of the assay: Cellular testing of PDK1 kinase inhibitors in PC3 cells (Luminex, phospho-T308-PKB). The assay is classed as cell-based. The note with it: Homo sapiens, PC-3, 0.5 h, 30 min with test substance, serum-free, phospho-T308-PKB by Luminex, read-out: IC50 [PC3 P-PKB Thr308]. In short, it runs like this:
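Serum-starved PC3 cells treated 30 min with compound (7-point dilution); lysates captured on anti-total-PKB Luminex beads, with phospho-T308-PKB detected by antibody. Signals corrected by 10 μM staurosporine blank, expressed as percent of 0.3% DMSO control, giving IC50.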

Assay [3] addresses T1, PDK1 (Homo sapiens, UniProt O15530).
T1 construct: His6 (N)
The assay is described as follows: Test for the inhibition of PDK1 (flashplate, 33P-ATP). The assay is classed as biochemical. The note with it: His6-PDK1 3.4 nM, 4 μM ATP, 30° C., 60 min. In short, it runs like this:
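His6-PDK1(1-50) at 3.4 nM with biotinylated peptide substrate (400 nM) and 4 μM ATP plus 33P-ATP, 60 min at 30° C. Incorporated radioactivity counted; blank from 100 nM staurosporin subtracted. Activity given as % of no-compound control; IC50 from dilution series.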

Broadly, the IC50 is the point on the concentration scale where inhibition reaches its midpoint.

T1 sequence (O15530 51-556): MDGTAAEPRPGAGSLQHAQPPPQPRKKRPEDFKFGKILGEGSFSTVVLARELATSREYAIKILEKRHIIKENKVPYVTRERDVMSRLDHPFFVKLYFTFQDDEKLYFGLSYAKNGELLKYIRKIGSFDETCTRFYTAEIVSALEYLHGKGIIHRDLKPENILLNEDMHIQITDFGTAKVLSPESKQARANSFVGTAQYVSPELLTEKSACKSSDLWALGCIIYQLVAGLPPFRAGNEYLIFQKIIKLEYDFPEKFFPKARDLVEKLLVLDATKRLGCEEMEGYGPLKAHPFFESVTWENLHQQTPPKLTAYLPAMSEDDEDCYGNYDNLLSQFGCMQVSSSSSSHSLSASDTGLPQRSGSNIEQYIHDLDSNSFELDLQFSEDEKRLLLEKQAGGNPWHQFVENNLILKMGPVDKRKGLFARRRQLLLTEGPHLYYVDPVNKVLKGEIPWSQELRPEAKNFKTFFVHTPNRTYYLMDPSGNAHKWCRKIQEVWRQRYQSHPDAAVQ

Take `CCc1cc(-c2c[nH]c3ncc(-c4cnn(CC5CCCO5)c4)cc23)nc(N)n1` (stereo not shown) [Compound A2, 4-ethyl-6-{5-[1-(tetrahydrofuran-2-ylmethyl)-1H-pyrazol-4-yl]-1H-pyrrolo[2,3-b]pyridin-3-yl}-pyrimidin-2-ylamine]: the results for the half-maximal inhibitory concentration (IC50) in assay [1], in assay [2] and in assay [3] were 10 to 1000 nM, 10000 to 20000 nM and 10 to 1000 nM, respectively.
For `CCc1cc(-c2c[nH]c3ncc(-c4cnn(CCNC)c4)cc23)nc(N)n1` [Compound A3, 4-ethyl-6-{5-[1-(2-methylaminoethyl)-1H-pyrazol-4-yl]-1H-pyrrolo[2,3-b]pyridin-3-yl}pyrimidin-2-yl], the half-maximal inhibitory concentration (IC50) in assay [1] is 10 to 1000 nM; in assay [2], 10000 to 20000 nM; in assay [3], 10 to 1000 nM.
Take `CCc1cc(-c2c[nH]c3ncc(-c4cnn(CCCN(C)C)c4)cc23)nc(N)n1` [Compound A4, 4-{5-[1-(3-dimethylaminopropyl)-1H-pyrazol-4-yl]-1H-pyrrolo[2,3-b]pyridin-3-yl}-6-ethylpyrimidin-2-ylamine]: the concentration for half-maximal inhibition (IC50) in assay [1] fell in the range of 1000 to 10000 nM; in assay [2], 1000 to 10000 nM; in assay [3], 10 to 1000 nM.
Regarding `CCc1cc(-c2c[nH]c3ncc(-c4cnn(C5CCN(C)CC5)c4)cc23)nc(N)n1` [Compound A5, 4-ethyl-6-{5-[1-(1-methylpiperidin-4-yl)-1H-pyrazol-4-yl]-1H-pyrrolo[2,3-b]pyridin-3-yl}-pyrimidin-2-ylamine], the IC50 in assay [1] fell in the range of 10 to 1000 nM; in assay [2] it was 1000 to 10000 nM; in assay [3] it was 10 to 1000 nM.
Regarding `CCc1cc(-c2c[nH]c3ncc(-c4cnn(C5CCNCC5)c4)cc23)nc(N)n1` [Compound A6, 4-ethyl-6-[5-(1-piperidin-4-yl-1H-pyrazol-4-yl)-1H-pyrrolo[2,3-b]pyridin-3-yl]pyrimidin-2-ylamine], the IC50 is 1000 to 10000 nM in assay [1], 10000 to 20000 nM in assay [2] and 10 to 1000 nM in assay [3].
In the same order, the values of `CCc1cc(-c2c[nH]c3ncc(-c4cnn(CCN5CCCC5)c4)cc23)nc(N)n1` [Compound A7, 4-ethyl-6-{5-[1-(2-pyrrolidin-1-ylethyl)-1H-pyrazol-4-yl]-1H-pyrrolo[2,3-b]pyridin-3-yl}pyrimidin-2-ylamine] are 10 to 1000 nM, 10000 to 20000 nM and 10 to 1000 nM.
In the same order, the values of `CCc1cc(-c2c[nH]c3ncc(-c4cnn(CCN5CCOCC5)c4)cc23)nc(N)n1` [Compound A8, 4-ethyl-6-{5-[1-(2-morpholin-4-ylethyl)-1H-pyrazol-4-yl]-1H-pyrrolo[2,3-b]pyridin-3-yl}pyrimidin-2-ylamine] are 1000 to 10000 nM, 1000 to 10000 nM and 10 to 1000 nM.
On to `CC(C)n1cc(-c2cnc3[nH]cc(-c4cc(C(C)(O)c5ccccc5)nc(N)n4)c3c2)cn1` (stereo not shown) [Compound A55, 1-{2-Amino-6-[5-(1-isopropyl-1H-pyrazol-4-yl)-1H-pyrrolo[2,3-b]pyridin-3-yl]-pyrimidin-4-yl}-1-phenylethanol], for which the concentration for half-maximal inhibition (IC50) in assay [1], in assay [2] and in assay [3] was 10 to 1000 nM each time.
Regarding `CCC(O)(c1ccccc1)c1cc(-c2c[nH]c3ncc(-c4cnn(C(C)C)c4)cc23)nc(N)n1` (stereo not shown) [Compound A59, 1-{2-amino-6-[5-(1-isopropyl-1H-pyrazol-4-yl)-1H-pyrrolo[2,3-b]pyridin-3-yl]pyrimidin-4-yl}-1-phenylpropan-1-ol], the IC50 in assay [1], in assay [2] and in assay [3] was 10 to 1000 nM in each case.
Consider `CCC[C@H](O)c1cc(-c2c[nH]c3ncc(-c4cnn(C(C)C)c4)cc23)nc(N)n1` [Compound A90, (S)-1-{2-Amino-6-[5-(1-isopropyl-1H-pyrazol-4-yl)-1H-pyrrolo[2,3-b]pyridin-3-yl]pyrimidin-4-yl}butan-1-ol], for which the IC50 in assay [1] was in the range of 10 to 1000 nM; in assay [2], 1000 to 10000 nM; in assay [3], 10 to 1000 nM.
For `CCC[C@@H](O)c1cc(-c2c[nH]c3ncc(-c4cnn(C(C)C)c4)cc23)nc(N)n1` [Compound A91, (R)-1-{2-Amino-6-[5-(1-isopropyl-1H-pyrazol-4-yl)-1H-pyrrolo[2,3-b]pyridin-3-yl]pyrimidin-4-yl}butan-1-ol], the IC50 in assay [1], in assay [2] and in assay [3] was 10 to 1000 nM each time.
In the case of `CC(C)C(O)c1cc(-c2c[nH]c3ncc(-c4cnn(C(C)C)c4)cc23)nc(N)n1` (stereo not shown) [Compound A102, 1-{2-Amino-6-[5-(1-isopropyl-1H-pyrazol-4-yl)-1H-pyrrolo[2,3-b]pyridin-3-yl]-pyrimidin-4-yl}-2-methylpropan-1-ol], the 50% inhibitory concentration (IC50) in assay [1] was 1000 to 10000 nM; in assay [2] it was 1000 to 10000 nM; in assay [3] it was 10 to 1000 nM.
With `CC(C)n1cc(-c2cnc3[nH]cc(-c4cc([C@](C)(O)c5ccccc5)nc(N)n4)c3c2)cn1` [Compound A123, (R)-1-{2-Amino-6-[5-(1-isopropyl-1H-pyrazol-4-yl)-1H-pyrrolo[2,3-b]pyridin-3-yl]pyrimidin-4-yl}-1-phenylethanol], the half-inhibitory concentration (IC50) in assay [1], in assay [2] and in assay [3] was 10 to 1000 nM in each case.
As for `CC(C)n1cc(-c2cnc3[nH]cc(-c4cc([C@@](C)(O)c5ccccc5)nc(N)n4)c3c2)cn1` [Compound A124, (S)-1-{2-Amino-6-[5-(1-isopropyl-1H-pyrazol-4-yl)-1H-pyrrolo[2,3-b]pyridin-3-yl]pyrimidin-4-yl}-1-phenylethanol], the IC50 in assay [1], in assay [2] and in assay [3] was 10 to 1000 nM in each case.
Take `CC(C)n1cc(-c2cnc3[nH]cc(-c4cc(C5(O)CCNCC5)nc(N)n4)c3c2)cn1` [Compound A125, 4-{2-Amino-6-[5-(1-isopropyl-1H-pyrazol-4-yl)-1H-pyrrolo[2,3-b]pyridin-3-yl]-pyrimidin-4-yl}piperidin-4-ol]: the values for the IC50 in assay [2] and in assay [3] were 10000 to 20000 nM and 1000 to 10000 nM, respectively.
Turning to `CCc1cc(-c2c[nH]c3ncc(-c4cnn(CC(=O)N5CCCc6ccccc65)c4)cc23)nc(N)n1` [Compound A128, 2-{4-[3-(2-Amino-6-ethylpyrimidin-4-yl)-1H-pyrrolo[2,3-b]pyridin-5-yl]pyrazol-1-yl}-1-(3,4-dihydro-2H-quinolin-1-yl)ethanone], the results for the IC50 in assay [2] and in assay [3] were 1000 to 10000 nM and 10 to 1000 nM, respectively.
